The text below walks through data of PubChem BioAssay AID1549 (Sanford-Burnham Center for Chemical Genomics, 2009).

Active and inactive are the calls of the source. The rule behind the calls is not given here.

For this assay, the target named is Influenza A virus M2 proton channel (A/TW/4845/1999 H1N1). The experiment in a line: NMR binding screen, influenza A virus M2 proton channel, Kd (AID 1549). The conditions noted are these: M2 protein.
Take `CN1CCOc2cc(C(=O)O)ccc21`: the Kd was > 4 mM (inactive).
With `CCn1nccc1C(=O)Nc1ccc(Cl)cc1Cl` the figure was > 4 mM (inactive).
With `CN1CCn2c1nc(N1CCCCC1)nc2=O` the figure was > 4 mM (inactive).
With `O=CN1CCN(C(=O)c2ccco2)CC1` the figure was > 4 mM (inactive).
For the molecule `O=C1CNC(=O)N1Cc1ccc(Br)cc1`, the Kd is > 4 mM (inactive).
`CN1CCN(C(=S)c2ccc(N(C)C)cc2)CC1`: the Kd was > 4 mM (inactive).
`O=C(NCC1CCNCC1)c1ccncc1`: the Kd is > 4 mM (inactive).
With `CC(=O)OC1CCC2(C)C(=CC=C3C2CCC2(C)C3CCC2C(C)/C=C/C(C)C(C)C)C1(C)C` (stereo not given) the figure was > 4 mM (inactive); with `c1ccc(-c2nsc(N3CCCNCC3)n2)cc1`, > 4 mM (inactive).
With `Cc1nnc(SCC(=O)N2CCCCC2)s1` the figure was > 4 mM (inactive).
With `O=S(=O)(Nc1ccc2c(c1)OCCO2)c1cccs1` the figure was > 4 mM (inactive).
`CC1(C)NCCN2C(=O)CSC21` (stereo not given): the Kd was > 4 mM (inactive).
With `CCn1cnc2scc(-c3ccccc3)c2c1=O` the figure was > 4 mM (inactive); with `COC(=O)c1c(OC)cc2c(c1C)Oc1c(Cl)c(O)c(Cl)c(C)c1C(=O)O2`, > 4 mM (inactive); with `N#CCSc1nc(-c2ccccc2)cs1`, > 4 mM (inactive).
Turning to `Clc1ccccc1OCCn1ccnc1`, the Kd is > 4 mM (inactive).
With `Cc1nnc(N2CCc3ccccc3C2)[nH]c1=O` the figure was > 4 mM (inactive); with `CC(=O)Nc1ccc(S(N)(=O)=O)cc1`, > 4 mM (inactive); with `O=C(O)/C=C/C=C/c1ccccc1`, > 4 mM (inactive).
With `O=C(c1ccc(F)cc1)N1CCN(c2ncccn2)CC1` the figure was > 4 mM (inactive).
With `CP(C)(=O)CCC(=O)O` the figure was > 4 mM (inactive); with `CC1(C)SCC(C(=O)O)N1C=O` (stereo not given), > 4 mM (inactive).
`COc1ccc(C(=O)NC2=NCCS2)cc1OC`: the Kd is > 4 mM (inactive).
With `OC(CCl)c1ccc(-n2cncn2)cc1` (stereo not given) the figure was > 4 mM (inactive); with `CC(=O)c1ccc(NC(=O)c2ocnc2C)cc1`, > 4 mM (inactive).
With `COc1cccc(Oc2ccc(N)cn2)c1` the figure was > 4 mM (inactive); with `CC(C)CCCC(C)[C@H]1CCC2C3CC=C4CC(=O)CC[C@]4(C)C3CC[C@@]21C` (stereo not given in full), > 4 mM (inactive); with `O=c1ccc(=O)n(CN2CCc3ccccc3C2)[nH]1`, > 4 mM (inactive).
With `COC(=O)CCC(C)[C@H]1CCC2C3C(C[C@H](O)[C@@]21C)[C@@]1(C)CC[C@@H](O)C[C@H]1C[C@H]3O` (stereo not given in full) the figure was > 4 mM (inactive); with `CC(=O)NCCc1cc2ccc(C)c(C)c2[nH]c1=O`, > 4 mM (inactive).
In the case of `Cc1cc(C(=O)NC(C)c2ccncc2)cs1` (stereo not given), the Kd is > 4 mM (inactive).
With `Nc1ncnc2c1ncn2[C@@H]1O[C@H](CO)[C@@H](O)[C@H]1O` the figure was > 4 mM (inactive); with `O=C(Nc1ccc(N2CCOCC2)cc1)c1cnsn1`, > 4 mM (inactive); with `Oc1ccccc1-c1nnco1`, > 4 mM (inactive).
For `Cc1ccccc1NC(=O)CSc1ccnc(=O)[nH]1`, the Kd was > 4 mM (inactive).
With `O=c1[nH]c(=O)c2[nH]cnc2[nH]1` the figure was > 4 mM (inactive); with `NC(=S)CN1CCCC1=O`, > 4 mM (inactive).
With `c1ccc(C[N+]23CCN(CC2)CC3)cc1` the figure was > 4 mM (inactive); with `CN1CCCCC1c1ccc(-c2cccnc2)nc1` (stereo not given), > 4 mM (inactive).
With `O=C1C=CC2=C3c4cc(O)c(O)cc4CC3(O)COC2=C1O` (stereo not given) the figure was > 4 mM (inactive).
Turning to `O=C(CN1CCOCC1)Nc1cccc(Br)c1`, the Kd is > 4 mM (inactive).
With `Cc1cc2ncc(C(=O)O)c(C)n2n1` the figure was > 4 mM (inactive).
With `COc1cccc(N2CCNCC2)c1` the figure was > 4 mM (inactive); with `S=C(c1ccc(N2CCOCC2)cc1)N1CCOCC1`, > 4 mM (inactive).
On to `O=C(Oc1ccc(-c2nnco2)cc1)N1CCOCC1`, for which the Kd is > 4 mM (inactive).
With `CCn1nnc2c(NCc3ccccn3)ncnc21` the figure was > 4 mM (inactive); with `OC[C@H]1O[C@@H](O[C@H]2[C@H](O)[C@@H](O)[C@@H](O)O[C@@H]2CO)[C@H](O)[C@@H](O)[C@@H]1O`, > 4 mM (inactive); with `Cc1nnsc1C(=O)N(C)c1ccccc1`, > 4 mM (inactive).
With `O=C1NC(=O)C(c2ccccc2)C(=O)N1` the figure was > 4 mM (inactive).
With `CN1CCN(CC(O)c2ccccc2)CC1` (stereo not given) the figure was > 4 mM (inactive); with `NC1C2CC3CC1CC(O)(C3)C2` (stereo not given), > 4 mM (inactive); with `Cc1ccc2[nH]cc(CCN)c2c1`, > 4 mM (inactive).
As to `OCc1nccn1Cc1ccccc1`, the Kd was > 4 mM (inactive).
`CC(C)NC(=S)NCc1cnn(C)c1`: the Kd was > 4 mM (inactive).
With `Cc1nnc(N2CCN(c3ccccc3)CC2)[nH]c1=O` the figure was > 4 mM (inactive).
With `c1cc2n(c1)CCNC2c1ccncc1` (stereo not given) the figure was > 4 mM (inactive).
With `COc1cccc(NC(=O)c2cnn(C)c2Cl)c1` the figure was > 4 mM (inactive); with `Cc1ccc(C)n1-c1ccc(C(=O)N2CCOCC2)cc1`, > 4 mM (inactive).
With `Cc1cc(C(=O)NC(C)c2ccncc2)no1` (stereo not given), the Kd was > 4 mM (inactive).
With `O=C(c1ccccc1)c1ccc(N2CCNCC2)cc1` the figure was > 4 mM (inactive); with `COc1ccc(-c2coc3cc(O)ccc3c2=O)c(OC)c1`, > 4 mM (inactive); with `Cc1c(C)[n+](=O)c(-c2cccs2)c(C)n1[O-]`, > 4 mM (inactive).
With `CCCOn1nnnc1-c1ccccc1` the figure was > 4 mM (inactive); with `CCc1c(C(=O)N2CCOCC2)csc1C`, > 4 mM (inactive).
With `COc1ccc(NC(=O)CCCC(=O)O)c(OC)c1` the figure was > 4 mM (inactive); with `C[C@@H](N)[C@@H](O)c1ccccc1`, > 4 mM (inactive).
Consider `Cc1sc2nc3n(c(=O)c2c1C)CCCS3`, for which the Kd is > 4 mM (inactive).
For `C/C=C(\C)c1nnc(NC(=O)C(C)C)s1`, the Kd was > 4 mM (inactive).
With `NC(=O)Cn1cnc(-c2ccc(F)cc2)c1` the figure was > 4 mM (inactive); with `CC(=O)Oc1cc(-c2coc3cc(OC(C)=O)c(OC(C)=O)c(OC(C)=O)c3c2=O)cc(OC(C)=O)c1OC(C)=O`, > 4 mM (inactive).
With `CCN1CCC(NC2CCC(O)CC2)CC1` (stereo not given) the figure was > 4 mM (inactive); with `COc1cc2nc[nH]c(=O)c2cc1OC`, > 4 mM (inactive).
With `COC(=O)[C@H]1[C@H]2C[C@H]3c4[nH]c5ccccc5c4CCN3C[C@H]2CC[C@@H]1O` the figure was > 4 mM (inactive); with `CC(=O)C1CCC2C3CCC4C[C@H](O)CCC4(C)C3C[C@H](O)C12C` (stereo not given in full), > 4 mM (inactive); with `COc1ccc(-c2c(O)c3c(OC)c4c(cc3oc2=O)OC(C)(C)CC4)cc1`, > 4 mM (inactive).
Consider `CN1CCN(c2ccc(C(=O)O)cc2)CC1`, for which the Kd is > 4 mM (inactive).
With `Cn1c(=O)c2c(ncn2CCN)n(C)c1=O` the figure was > 4 mM (inactive); with `Cc1c(N=CN(C)C)c(=O)n(-c2ccccc2)n1C`, > 4 mM (inactive); with `Nc1cccnc1N1CCOCC1`, > 4 mM (inactive).
With `O=c1cc(-c2ccccc2)oc2c(O)c(O)ccc12` the figure was > 4 mM (inactive).
With `O=C1C2CCCCC2C(=O)N1c1nccs1` (stereo not given) the figure was > 4 mM (inactive); with `O=C(O)CCCCCCCCCCCCC1C=CCC1` (stereo not given), > 4 mM (inactive); with `CC(=O)O[C@H]1CC[C@@]2(C)C(=CC(=O)C3C4CCC(C(C)CCCC(C)C)[C@@]4(C)CCC32)C1` (stereo not given in full), > 4 mM (inactive).
As to `Cc1ccc(NC(=O)C2CCN(S(C)(=O)=O)CC2)cc1`, the Kd is > 4 mM (inactive).
For the molecule `O=c1[nH]c2sc3c(c2c2nncn12)CCCC3`, the Kd is > 4 mM (inactive).
With `Cc1oc(-c2ccccc2)cc1CO` the figure was > 4 mM (inactive); with `COc1cc(/C=C/C(=O)/C=C(O)/C=C/c2ccc(O)c(OC)c2)ccc1O`, > 4 mM (inactive); with `Cc1occc1C(=O)NC1CCN(C)CC1`, > 4 mM (inactive).
In the case of `Cc1nc(-c2ccc(CO)s2)cs1`, the Kd was > 4 mM (inactive).
With `COc1c(O)cc(O)cc1O` the figure was > 4 mM (inactive); with `O=C(N1CCOCC1)N1CCN(c2ccccn2)CC1`, > 4 mM (inactive); with `COc1cc(OC)c2c(OC)c(-c3ccc4c(c3)OCO4)c(=O)oc2c1`, > 4 mM (inactive).
Turning to `CC(=O)Nc1sccc1C(=O)NC(N)=O`, the Kd is > 4 mM (inactive).
With `Cc1nnc(Nc2ccc(S(N)(=O)=O)cc2)[nH]c1=O` the figure was > 4 mM (inactive); with `CCc1c(C)[nH]c(=S)c(C(N)=O)c1C`, > 4 mM (inactive).
Consider `O=C(O)/C=C1\NC(=O)c2ccccc21`, for which the Kd was > 4 mM (inactive).
With `O=C1CCCc2c1nc(-c1ccccc1)n2O` the figure was > 4 mM (inactive); with `NCCCCN`, > 4 mM (inactive).
As for `c1coc(CNc2ncnc3nc[nH]c23)c1`, the Kd is > 4 mM (inactive).
With `Cc1cc(C(=O)Nc2sc(C)c(C)c2C#N)no1` the figure was > 4 mM (inactive); with `O=C(O)C1CC(C2CCCCN2)CN2CCCCC12` (stereo not given), > 4 mM (inactive).
With `COc1ccc2c(c1OC)C(=O)O[C@H]2[C@H]1c2cc3c(cc2CCN1C)OCO3` the figure was > 4 mM (inactive); with `CC1CCN(S(=O)(=O)N(C)C)CC1`, > 4 mM (inactive); with `Cc1ccc(NC(=O)C(=O)Nc2ccccn2)cc1`, > 4 mM (inactive).
With `CN1C(=O)CC(=O)N(C)c2ccccc21` the figure was > 4 mM (inactive).
